The results in this text go back to US20250229068A1, “ELECTROCONDUCTIVE MICRONEEDLE FOR DRUG DELIVERY INTO DEEP TISSUE” (The University of Hong Kong, priority 2024, published 2025).

The test system of the assay is CGRP gene expression in PC-12 cells. The assay can be described thus: RT-qPCR of CGRP gene in PC-12 cells. The note with it: miconazole and electric current together (0.5 mA, 5 mins), 24 h. The format is cell-based. The method, then: PC-12 cells are cultures with 10% FBS and 1% Penicillin-Streptomycin supplemented with DMEM and incubated in a humidified incubator (37° C., 5% CO2). For the experiment, 5×10^4 cells per well are seeded on to 24 well plates and incubate for 24 hours to form a uniform monolayer. After that, miconazole nitrate ([…]) and electrical stimulation (0.5 mA, 5 mins) are given as treatment. Further, untreated cells are served as a control. After the treatment, medium is changed for electrical stimulation group and incubate for another 24 h. After that, total RNA is extracted from the treated cells using RNeasy Mini Kit (Qiagen, Hilden, Germany) and checked the purity using NanoDrop (Thermo Fisher Scientific, USA). Next, RNA is reversely transcribed into cDNA using the First Strand cDNA kit (Takara, DaLian, China). Real-time quantitative PCR reaction is performed with cDNA using TB green Premix. The mean cycle threshold (Ct) value of each target gene is normalized to the housekeeping genes (i.e., GAPDH).
It is hypothesized that the miconazole nitrate molecules released from the electroconductive MNs may also trigger the release of the calcitonin gene-related peptide (CGRP) from nociceptive neurons under electrical stimulation. […]
Background: Real-time PCR tracks product formation cycle by cycle.

For `Clc1ccc(COC(Cn2ccnc2)c2ccc(Cl)cc2Cl)c(Cl)c1` (stereo not shown) [miconazole, miconazole nitrate], the “increase in the expression of CGRP” value is recorded as approximately 3 fold.
